According to patent US12492181B2, “Gem-disubstituted piperidine melanocortin subtype-2 receptor (MC2R) antagonists and uses thereof” (Crinetics Pharmaceuticals, Inc., priority 2019, dated 2025):

What follows are compounds tested against T1, hMC2 receptor (crude hMC2R membranes from CRE-bla-CHO-K1 cells stably expressing hMC2 receptor and hMRAP accessory protein) (Homo sapiens, UniProt Q01718) (assay: hMC2 membrane binding assay ([125I]ACTH (1-39) Tyr23, SPA)). Conditions: displacement of 0.2 nM [125I]ACTH (1-39) Tyr23 from hMC2R membranes, 1.5 hours at room temperature; read-out: MC2R binding potency.
T1 construct: crude membrane fractions
How it was run: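 Ki values come from non-linear regression of SPA scintillation counts, with compounds displacing [125I]ACTH(1-39) Tyr23. Membranes come from CRE-bla-CHO-K1 cells stably expressing hMC2 receptor together with hMRAP. They are preincubated with WGA-coated PVT SPA beads in 50 mM HEPES pH 7.4 with 0.20% BSA, Mg2+, Ca2+ and protease inhibitors.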

T1 sequence (Q01718 whole entry): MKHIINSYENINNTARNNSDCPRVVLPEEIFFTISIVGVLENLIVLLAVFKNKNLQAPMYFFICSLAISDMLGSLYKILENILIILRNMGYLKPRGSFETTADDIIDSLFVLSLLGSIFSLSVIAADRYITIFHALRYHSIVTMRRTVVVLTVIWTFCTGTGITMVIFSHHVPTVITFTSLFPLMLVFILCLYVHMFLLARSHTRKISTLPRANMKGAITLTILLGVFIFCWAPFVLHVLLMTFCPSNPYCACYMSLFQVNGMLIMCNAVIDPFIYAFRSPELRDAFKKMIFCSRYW
T1 sequence (Q8TCY5 whole entry partner): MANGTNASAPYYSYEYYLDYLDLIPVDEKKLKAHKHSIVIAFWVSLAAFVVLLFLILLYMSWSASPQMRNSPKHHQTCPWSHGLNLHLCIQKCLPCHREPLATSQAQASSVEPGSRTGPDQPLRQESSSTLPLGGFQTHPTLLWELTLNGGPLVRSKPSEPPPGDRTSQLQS

SMILES | Ki [nM]
CCOc1ncccc1-c1ccc(C2(NC(=O)[C@H]3CCCN3C)CCN(c3ccc(C(F)(F)F)cc3C#N)CC2)cc1 [Compound 2-17, (2R)—N-{1-[2-cyano-4-(trifluoromethyl)phenyl]-4-[4-(2-ethoxypyridin-3-yl)phenyl]piperidin-4-yl}-1-methylpyrrolidine-2-carboxamide] | 10 to 100
CNCCNC(=O)C1(c2cnc(-c3ccccc3OC)c(F)c2)CCN(c2ccc(C(F)(F)F)cc2F)CC1 [Compound 1-293, 1-[2-fluoro-4-(trifluoromethyl)phenyl]-4-[5-fluoro-6-(2-methoxyphenyl)pyridin-3-yl]-N-[2-(methylamino)ethyl]piperidine-4-carboxamide] | < 10
C[C@@H](CN(C)C)NC(=O)C1(c2ccc(-c3cccn3C)nc2)CCN(c2ccc(C(F)(F)F)cc2C#N)CC1 [Compound 1-261, 1-[2-cyano-4-(trifluoromethyl)phenyl]-N-[(2S)-1-(dimethylamino)propan-2-yl]-4-[6-(1-methyl-1H-pyrrol-2-yl)pyridin-3-yl]piperidine-4-carboxamide] | < 10
CNC[C@H](C)NC(=O)C1(c2cnc(-c3cccn3C)c(F)c2)CCN(c2ccc(C(F)(F)F)cc2C#N)CC1 [Compound 1-326, 1-[2-cyano-4-(trifluoromethyl)phenyl]-4-[5-fluoro-6-(1-methyl-1H-pyrrol-2-yl)pyridin-3-yl]-N-[(2S)-1-(methylamino)propan-2-yl]piperidine-4-carboxamide] | < 10
CCOc1ncccc1-c1ccc(C2(C(=O)NCCN(C)C)CCN(c3ccc(C(F)(F)F)cc3C#N)CC2)cc1 [Compound 1-8, 1-[2-cyano-4-(trifluoromethyl)phenyl]-N-[2-(dimethylamino)ethyl]-4-[4-(2-ethoxypyridin-3-yl)phenyl]piperidine-4-carboxamide] | < 10
CCOc1ncccc1-c1ncc(C2(C(=O)NCCNC)CCN(c3ccc(C(F)(F)F)cc3Cl)CC2)cc1F [Compound 1-299, 1-[2-chloro-4-(trifluoromethyl)phenyl]-4-{2′-ethoxy-3-fluoro-[2,3′-bipyridin]-5-yl}-N-[2-(methylamino)ethyl]piperidine-4-carboxamide] | < 10
CCOc1ccccc1-c1ccc(C2(C(=O)N[C@H]3CCN(C)C3)CCN(c3c(F)cc(Cl)cc3C#N)CC2)cn1 [Compound 1-111, 1-(4-chloro-2-cyano-6-fluorophenyl)-4-[6-(2-ethoxyphenyl)pyridin-3-yl]-N-[(3S)-1-methylpyrrolidin-3-yl]piperidine-4-carboxamide] | < 10
CCOc1ncccc1-c1ccc(C2(C(=O)N[C@H]3CCN(C)C3)CCN(c3ccccc3C#N)CC2)cn1 [Compound 1-32, 1-(2-cyanophenyl)-4-{2′-ethoxy-[2,3′-bipyridin]-5-yl}-N-[(3S)-1-methylpyrrolidin-3-yl]piperidine-4-carboxamide] | 10 to 100
CNCCNC(=O)C1(c2ccc(-c3cccn3C)nc2)CCN(c2ccc(C(F)(F)F)cc2F)CC1 [Compound 1-281, 1-[2-fluoro-4-(trifluoromethyl)phenyl]-4-[6-(1-methyl-1H-pyrrol-2-yl)pyridin-3-yl]-N-[2-(methylamino)ethyl]piperidine-4-carboxamide] | < 10
COc1ccccc1-c1ccc(C2(C(=O)NC[C@H]3CCN3)CCN(c3ccc(C(F)(F)F)cc3C#N)CC2)cn1 [Compound 1-236, N-{[(2R)-azetidin-2-yl]methyl}-1-[2-cyano-4-(trifluoromethyl)phenyl]-4-[6-(2-methoxyphenyl)pyridin-3-yl]piperidine-4-carboxamide] | < 10
COc1ncccc1-c1ccc(C2(NC(=O)C3CN(C)C3)CCN(c3ccc(C(F)(F)F)cc3C#N)CC2)cn1 [Compound 2-40, N-{1-[2-cyano-4-(trifluoromethyl)phenyl]-4-{2′-methoxy-[2,3′-bipyridin]-5-yl}piperidin-4-yl}-1-methylazetidine-3-carboxamide] | < 10
CCOc1ncccc1-c1ccc(C2(C(=O)NC3CN(C)C3)CCN(c3ccc(C(F)(F)F)cc3C#N)CC2)nn1 [Compound 1-140, 1-[2-cyano-4-(trifluoromethyl)phenyl]-4-[6-(2-ethoxypyridin-3-yl)pyridazin-3-yl]-N-(1-methylazetidin-3-yl)piperidine-4-carboxamide] | < 10
CNC[C@H](C)NC(=O)C1(c2ccc(-c3cccnc3OC)nc2)CCN(c2ccc(C(F)(F)F)cc2F)CC1 [Compound 1-306, 1-[2-fluoro-4-(trifluoromethyl)phenyl]-4-{2′-methoxy-[2,3′-bipyridin]-5-yl}-N-[(2S)-1-(methylamino)propan-2-yl]piperidine-4-carboxamide] | < 10
COc1ccccc1-c1ccc(C2(NC(=O)O[C@@H]3CCN(C)C3)CCN(c3ccc(C(F)(F)F)cc3C#N)CC2)cn1 [Compound 2-54, (3R)-1-methylpyrrolidin-3-yl N-{1-[2-cyano-4-(trifluoromethyl)phenyl]-4-[6-(2-methoxyphenyl)pyridin-3-yl]piperidin-4-yl}carbamate] | < 10

Further lines, results first:

Ki [nM] | SMILES
< 10 | CN1CC[C@@H](NC(=O)C2(c3ccc(-c4ccccc4C4CC4)nc3)CCN(c3ccc(C(F)(F)F)cc3C#N)CC2)C1 [Compound 1-113, 1-[2-cyano-4-(trifluoromethyl)phenyl]-4-[6-(2-cyclopropylphenyl)pyridin-3-yl]-N-[(3R)-1-methylpyrrolidin-3-yl]piperidine-4-carboxamide]
< 10 | Cc1occc1-c1ccc(C2(C(=O)N[C@@H]3CCN(C)C3)CCN(c3ccc(C(F)(F)F)cc3C#N)CC2)cn1 [Compound 1-116, 1-[2-cyano-4-(trifluoromethyl)phenyl]-4-[6-(2-methylfuran-3-yl)pyridin-3-yl]-N-[(3R)-1-methylpyrrolidin-3-yl]piperidine-4-carboxamide]
< 10 | CN1CC[C@@H](NC(=O)C2(c3ccc(-c4ccccc4CO)nc3)CCN(c3ccc(C(F)(F)F)cc3C#N)CC2)C1 [Compound 1-55, 1-[2-cyano-4-(trifluoromethyl)phenyl]-4-{6-[2-(hydroxymethyl)phenyl]pyridin-3-yl}-N-[(3R)-1-methylpyrrolidin-3-yl]piperidine-4-carboxamide]
< 10 | CN1CC[C@H](NC(=O)C2(c3ccc(-c4cccn4C)nc3)CCN(c3ccc(C(F)(F)F)cc3Cl)CC2)C1 [Compound 1-160, 1-[2-chloro-4-(trifluoromethyl)phenyl]-4-[6-(1-methyl-1H-pyrrol-2-yl)pyridin-3-yl]-N-[(3S)-1-methylpyrrolidin-3-yl]piperidine-4-carboxamide]
< 10 | CN1CC[C@H](NC(=O)C2(c3ccc(-c4ccccc4C4CC4)nc3)CCN(c3ccc(C(F)(F)F)cc3C#N)CC2)C1 [Compound 1-121, 1-[2-cyano-4-(trifluoromethyl)phenyl]-4-[6-(2-cyclopropylphenyl)pyridin-3-yl]-N-[(3S)-1-methylpyrrolidin-3-yl]piperidine-4-carboxamide]
< 10 | CCn1nccc1-c1ccc(C2(C(=O)N[C@@H]3CCN(C)C3)CCN(c3ccc(C(F)(F)F)cc3C#N)CC2)cn1 [Compound 1-62, 1-[2-cyano-4-(trifluoromethyl)phenyl]-4-[6-(1-ethyl-1H-pyrazol-5-yl)pyridin-3-yl]-N-[(3R)-1-methylpyrrolidin-3-yl]piperidine-4-carboxamide]
< 10 | CCOc1ncccc1-c1ccc(C2(C(=O)N[C@H]3CCN(C)C3)CCN(c3ccc(C(C)=O)cc3C#N)CC2)cn1 [Compound 1-36, 1-(4-acetyl-2-cyanophenyl)-4-{2′-ethoxy-[2,3′-bipyridin]-5-yl}-N-[(3S)-1-methylpyrrolidin-3-yl]piperidine-4-carboxamide]
< 10 | Cc1sccc1-c1ccc(C2(C(=O)N[C@@H]3CCN(C)C3)CCN(c3ccc(C(F)(F)F)cc3C#N)CC2)cn1 [Compound 1-112, 1-[2-cyano-4-(trifluoromethyl)phenyl]-N-[(3R)-1-methylpyrrolidin-3-yl]-4-[6-(2-methylthiophen-3-yl)pyridin-3-yl]piperidine-4-carboxamide]
< 10 | COc1ncc(F)cc1-c1ncc(C2(C(=O)N[C@H]3CCN(C)C3)CCN(c3ccc(C(F)(F)F)cc3C#N)CC2)cc1F [Compound 1-209, 1-[2-cyano-4-(trifluoromethyl)phenyl]-4-{3,5′-difluoro-2′-methoxy-[2,3′-bipyridin]-5-yl}-N-[(3S)-1-methylpyrrolidin-3-yl]piperidine-4-carboxamide]
< 10 | CCOc1ccccc1-c1ncc(C2(C(=O)N[C@H]3CCN(C)C3)CCN(c3ccc(C(F)(F)F)cc3C#N)CC2)cc1F [Compound 1-124, 1-[2-cyano-4-(trifluoromethyl)phenyl]-4-[6-(2-ethoxyphenyl)-5-fluoropyridin-3-yl]-N-[(3S)-1-methylpyrrolidin-3-yl]piperidine-4-carboxamide]
< 10 | CCOc1ccccc1-c1ncc(C2(C(=O)N[C@@H]3CCN(C)C3)CCN(c3ccc(C(F)(F)F)cc3C#N)CC2)cc1F [Compound 1-123, 1-[2-cyano-4-(trifluoromethyl)phenyl]-4-[6-(2-ethoxyphenyl)-5-fluoropyridin-3-yl]-N-[(3R)-1-methylpyrrolidin-3-yl]piperidine-4-carboxamide]
< 10 | COc1ncccc1-c1ccc(C2(C(=O)N[C@H]3CCN(C)C3)CCN(c3ccc(C(F)(F)F)cc3C#N)CC2)cn1 [Compound 1-179, 1-[2-cyano-4-(trifluoromethyl)phenyl]-4-{2′-methoxy-[2,3′-bipyridin]-5-yl}-N-[(3S)-1-methylpyrrolidin-3-yl]piperidine-4-carboxamide]
< 10 | CCOc1ncccc1-c1ccc(C2(C(=O)N[C@H]3CCN(C)C3)CCN(c3ccc(C#N)cc3C#N)CC2)cn1 [Compound 1-40, 1-(2,4-dicyanophenyl)-4-{2′-ethoxy-[2,3′-bipyridin]-5-yl}-N-[(3S)-1-methylpyrrolidin-3-yl]piperidine-4-carboxamide]
